From patent publication US20150306110A1, “COMPOSITIONS AND METHODS FOR TREATMENT OF INFLAMMATION AND HYPERKERATOTIC LESIONS” (Novelix Pharmaceuticals, Inc., priority 2008, published 2015) come the findings set out here.

In one series the test system is pigs. The settings on record: pig, in vivo.
The next series deals with Mastocytoma-C2. As to the kind of experiment: Cell growth/survival, canine mastocytoma C2 cells. In kind it is cell-based. To be noted: Canis lupus familiaris. As to the method:
(§1) Melanoma cell lines used in this study were maintained in Dulbecco's modified Eagle medium (DMEM with 4500 mg/l glucose) supplemented with 10% FCS from Gibco BRL (Life Technologies, Berlin, Germany). The canine mastocytoma cell line C2 (DeVinney et al, Am. J. Respir. Cell Mol. Biol. 3:413-20, 1990) was used in this study, along with additional human cell lines: RD-ES and TC-71 (human Ewing's sarcoma), SAOS2 (human osteosarcoma), HT-1080 (human fibrosarcoma), Caco-2 (human colon adenocarcinoma), A549 (human lung adenocarcinoma), Hep-G2 and Hep-3B (human hepatocellular carcinoma), SK-N-DZ and SK-N-FI (human embryonal neuroblastoma), HTB9 (human bladder cancer), MDA-468 and MCF-7 (human breast cancer) and SW872 liposarcoma. All breast cancer cells were routinely cultured in DMEM/F-12 or in DMEM alone supplemented with 10% FCS at 37° C. in a humidified 5% CO2 atmosphere. RD-ES and TC-71 sarcoma cell lines were maintained in RPMI 1640 (Biochrom KG, Berlin, Germany) containing 10% FCS at 37° C. in a humidified 5% CO2 atmosphere. […]
(§2) Briefly, cells were maintained in standard medium, harvested, and plated at equal densities (750,000 cells in 5 cm tissue culture dishes). […] For the assessment of cell growth, the number of surviving cells was determined using an automated cell counter from Beckman Coulter GmbH (Krefeld, Germany). […]

The test system of the next series is human keratinocytes. The series can be described thus: Survival / anti-proliferative activity in keratinocytes. It is filed as cell-based. To be noted: for Mean survival, percentage of control-treated cells: n=3. As to the method:
All cells were treated with 2.5 μM NVX-207. Percentage (means±S.E., n=3) of control-treated cells are given. […] Mean survival in NVX-207 treated fibroblasts at 80% confluency was 92% (S.E.=3.8) versus 3.8% mean survival (S.E.=0.4) at 30% confluency. […] HUVECs, keratinocytes and fibroblast cells were obtained from Lonza GmbH (Wuppertal, Germany) and cultivated according to the manufacturer's instructions.
Human umbilical vein endothelial cells (HUVEC), keratinocytes and fibroblast cells were obtained from Lonza GmbH (Wuppertal, Germany) and cultivated according to the manufacturer's instructions. […] The IC50 value of betulinic acid in human keratinocytes was recently determined to be ˜5.0 μg/ml (Tino Galgon al., Exp Dermatol. 14:736-43, 2005), while the IC50 of NVX-207 is ˜0.7 µg/ml. […] Mean survival in NVX-207 treated fibroblasts at 80% confluency was 92% (S.E.=3.8) versus 3.8% mean survival (S.E.=0.4) at 30% confluency. […] Under normal physiological conditions, the endothelium, as well as skin fibroblasts and skin keratinocytes, show relatively low turn-over and limited cell divisions to maintain tissue integrity.
Keratinocytes at high confluence (e.g., 80%) mimic normal physiological conditions in which these cells divide more slowly (fewer cell divisions per unit of time). In contrast, keratinocytes in psoriatic lesions divide more rapidly, as do keratinocytes cultured at lower confluency (e.g., 30%). Thus, the 30% confluency conditions were considered a model for psoriasis whereas the behavior of 80% confluent cells more closely reflects the conditions observed in normal skin.

The subject of another series is GOTO (autonomic ganglia). The series can be described thus: Cell growth/survival, GOTO neuronal cancer cells. It is filed as cell-based. The settings on record: Homo sapiens, TP53 neg.
The subject of series [1] is canine lesion clinically diagnosed as basal cell carcinoma. The series can be described thus: Topical treatment of canine basal cell carcinoma. It is filed as in vivo, dog. From the text:
A 1% topical solution of NVX-207 in 20% ethanol, 20% Tween® 80 was applied to an exophytically growing slightly bleeding (on contact) tumor on the nose of a dog using a NVX-207 soaked cotton swab every second to third day for 7 weeks.

A short description of series [2]: Solubility in ethanol, DMSO and ethanol-Tween 80. It is filed as physicochemical. The settings on record: for solubility: organic solvent or mixture. As to the method: After solution in ethanol or DMSO, or chemically similar solvents, NVX-207 or a related compound may be formulated with co-solvents such as Cremophor EL® and/or Tween® 80, in a similar manner described for taxanes. For example, the formulation approach for paclitaxel (TAXOL®; Bristol-Myers Squibb) was to use 50% Cremophor EL® and 50% ethanol. The pharmaceutical formulation of paclitaxel contains 30 mg paclitaxel dissolved in 5 ml of this (1:1, v/v) mixture. These and equivalent formulations allow for the application of NVX-207 in sufficiently high concentrations not only for topical, but also for intralesional and systemic (intravenous infusion) use. Solubility of NVX-207 in ethanol was determined to be at least 300 mg/ml and reached 250 mg/ml in DMSO. […] The solubility of NVX-207 in ethanol-Tween® 80 was evaluated. Two-hundred mg of NVX-207 was dissolved in 1 ml ethanol. […] Then an equal volume of Tween® 80 was added, to achieve a stock solution of 100 mg/ml of NVX-207. The stock solution was clear and yellow. Each stock solution was diluted first 1:1 (50 mg/ml NVX-207), then 1:5 (20 mg/ml NVX-207) and finally 1:10 (10 mg/ml NVX-207) with water. […] NVX-207 therefore has, apart from its higher activity, significant advantages over betulinic acid, that include higher activity, better solubility in pharmaceutically suitable solvents, and better handling.

A further series relates to Caco-2. As to the kind of experiment: Cell growth/survival, Caco-2 colon adenocarcinoma cells. In kind it is cell-based. To be noted: Homo sapiens, TP53 neg. As to the method:
as §1, §2

Molecules are shown by their SMILES. Values after ≈ are worked out from the molar mass of the structure shown.

For the compound `C=C(C)[C@@H]1CC[C@]2(C(=O)OCC(N)(CO)CO)CC[C@]3(C)[C@H](CC[C@@H]4[C@@]5(C)CC[C@H](OC(C)=O)C(C)(C)[C@@H]5CC[C@]43C)[C@@H]12` [NVX-207, 3-O-acetylbetulinic acid-2-amino-3-hydroxy-2-hydroxymethylpropyl ester], in the series with pigs, the “Blood chemistry and hematology (blood status, mineral homoeostasis, liver and kidney functions)” value is “did not reflect any systemic NVX-207-induced impact”. The “Histopathological changes in skin biopsies” value in the series with pigs is recorded as “No treatment-related histopathological changes were observed”. Also, the Macroscopic skin irritations entry in the series on pigs (2 weeks) is listed as “No macroscopic NVX-207 related skin irritations were observed”. Moreover, the IC50 in the series with Mastocytoma-C2 is 3000 nM; in the series with human keratinocytes (Homo sapiens, Keratinocyte) it was about 0.7 µg/mL (≈ 0.00116 mM); in the series with GOTO (autonomic ganglia), 2000 nM; with Caco-2, 2700 nM. In addition, the “IC50 lower compared to betulinic acid on a molar basis” value with human keratinocytes (human keratinocytes) is given as about 10 fold. Also, in the series on human keratinocytes (keratinocytes, 2.5 μM), the “More active against proliferating cells (30% vs 80% confluency)” value is on record as about 6 fold. In addition, the “Mean survival, percentage of control-treated cells” value came to 17% in the series on human keratinocytes (keratinocytes, 30% confluency, 2.5 μM) and 92.7% with human keratinocytes (keratinocytes, 80% confluency, 2.5 μM). For the same compound, the Reduction of tumor entry in series [1] (1% topical solution in 20% ethanol, 20% Tween 80 every second to third day, after 3 weeks) was “about 90%”. For the same compound, the Inflammation during treatment result in series [1] (topical) is listed as “absence of inflammation”. Moreover, the “Increase in solubility in DMSO compared to betulinic acid” value in series [2] (DMSO) is reported as “over 20 fold”. Moreover, in series [2] (ethanol), the “Increase in solubility in ethanol compared to betulinic acid” value is listed as “over 300 fold”. The solubility in series [2] (Solubility in DMSO) is 250 mg/mL (≈ 415 mM); in series [2] (Solubility in ethanol) it was at least 300 mg/mL.

A word on the IC50: it is the concentration at which inhibition is half-maximal. As usually defined, the solubility is how much of the substance goes into solution per volume.
